The subject of one series is RKO WT cells. Kind of series: cells. Type of series: cell-based, human. The following applies: for EC50: Homo sapiens.
The next series concerns the target T1, BRD3 (Homo sapiens, UniProt Q15059).
T1 construct: HiBiT, is appended to the N-terminus of endogenous BRD2, BRD3, and BRD4; endogenous in cells
Kind of series: Live cell kinetic HiBiT degradation assay, HiBiT-BRD3 HEK293 cells. Format: cell-based. The following applies: for DC50: live cell kinetic degradation, read-out: Dmax 50 BRD3. As to the method:
HEK293 HiBiT-BRD2 (LgBiT stable), HEK293 HiBiT-BRD3 (LgBiT stable), and HEK293 HiBiT-BRD4 (LgBiT stable) were created using CRISPR/Cas9 to insert at HiBiT tag at the N-terminal genomic loci of BRD2, BRD3, or BRD4 in a cell line stably expressing LgBiT protein as described previously.[23]
For kinetic degradation experiments, HEK293 HiBiT-BRD2, 3, or 4 (LgBiT stable) cells and HEK293 HiBiT-BRD4 (LgBiT) CRBN KO and VHL KO cells were plated at 20,000 cells/well in DMEM +10% FBS in white 96-well tissue culture plates and allowed to adhere overnight. The next day, media was removed and 90 μL of prewarmed CO2-independent medium (Gibco) containing Endurazine (Promega) at a 1:100 dilution from stock was added. Plates were incubated at 37 °C for 3 h to allow luminescence to equilibrate. A threefold dilution series of each PROTAC at 10x the desired final concentration was prepared (with the amount of DMSO in each treatment condition kept constant). After luminescence equilibration, a preread luminescence measurement was taken (prior to compound addition) to allow for baseline normalization to account for possible plating differences. Cells were then treated with 10 μL of the prepared PROTAC dilution series (in triplicate or quadruplicate). Treated plates were placed in a GloMax Discover luminometer (Promega) prewarmed to 37 °C and luminescence measurements were obtained every 7 min for 24 h. Kinetic degradation plots were obtained by first normalizing time course luminescence readings in each well to the preread measurement, then to the average value of the DMSO only control at each time point. Data was analyzed using GraphPad Prism (version 8) and excel. Dmax values were identified as the lowest luminescence reading in each well. Rate constant values were calculated using a one phase exponential decay Y = (Y0-Plateau) e(K*^X) + Plateau using Prism (Y0 constrained to 1). Dmax 50 values were calculated by plotting Dmax as a function of concentration, then fitting plots using the following equation: [drawing 1] to determine IC50.
On the technique in general: HiBiT is a short tag that completes a luciferase, so light tracks the accessible tagged protein.

The test system of another series is K562 cells. Kind of series: Cell viability assay (CellTiter-Glo). Format: cell-based, human. To be noted: Homo sapiens; WT K562, 5.12 pM to 10 uM, n = 3 (Table S4). (In general: ATP-based viability assays read luminescence as a measure of living cells.)
The subject of another series is KBM7 cells. Kind of series: Cell viability assay (CellTiter-Glo). Type of series: cell-based, human. To be noted: Homo sapiens, KBM-7; WT KBM7, 5.12 pM to 10 uM, n = 3 (Table S4).
In the next series the target is BRD4 (Homo sapiens, UniProt O60885). Kind of series: Live cell kinetic HiBiT degradation assay, HiBiT-BRD4 HEK293 cells (parental, CRBN KO, VHL KO). Format: cell-based. To be noted: for λmax BRD4 (degradation rate): HiBiT-BRD4 knock-in HEK293 cells. In a few lines:
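Endogenous N-terminal HiBiT-BRD4 HEK293 cells stably expressing LgBiT (parental, CRBN KO, VHL KO) in CO2-independent medium with Endurazine, pre-equilibrated 3 h at 37 °C. Luminescence read every 7 min for 24 h after PROTAC addition (threefold series), normalized to pre-read and DMSO. Dmax = lowest reading; rate from one-phase decay; Dmax50 from Dmax-vs-concentration fit.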

Setting [1] is: WT RKO, 316 pM to 10 μM, n = 3 (Table S4), read-out: EC50 RKO.
[2] abbreviates: HiBiT-BRD3 CRISPR knock-in HEK293 cells, 24 h.
Where [3] appears, read: HiBiT-BRD3 knock-in HEK293 cells.
Setting [4] is: HiBiT-BRD4 CRISPR knock-in HEK293 cells, live cell kinetic degradation, 24 h, read-out: Dmax 50 BRD4.

Results on 5 compounds are retold here after publication PMC11638965, “Leveraging Dual-Ligase Recruitment to Enhance Protein Degradation via a Heterotrivalent Proteolysis Targeting Chimera” (Journal of the American Chemical Society, 2024).

Values joined by “and” are separate entries in the source; they are usually repeats but may differ in a detail not shown here. Equal values may be shown once. Read-outs that look alike come from different tables or passages of the source.

T1 sequence (Q15059 whole entry): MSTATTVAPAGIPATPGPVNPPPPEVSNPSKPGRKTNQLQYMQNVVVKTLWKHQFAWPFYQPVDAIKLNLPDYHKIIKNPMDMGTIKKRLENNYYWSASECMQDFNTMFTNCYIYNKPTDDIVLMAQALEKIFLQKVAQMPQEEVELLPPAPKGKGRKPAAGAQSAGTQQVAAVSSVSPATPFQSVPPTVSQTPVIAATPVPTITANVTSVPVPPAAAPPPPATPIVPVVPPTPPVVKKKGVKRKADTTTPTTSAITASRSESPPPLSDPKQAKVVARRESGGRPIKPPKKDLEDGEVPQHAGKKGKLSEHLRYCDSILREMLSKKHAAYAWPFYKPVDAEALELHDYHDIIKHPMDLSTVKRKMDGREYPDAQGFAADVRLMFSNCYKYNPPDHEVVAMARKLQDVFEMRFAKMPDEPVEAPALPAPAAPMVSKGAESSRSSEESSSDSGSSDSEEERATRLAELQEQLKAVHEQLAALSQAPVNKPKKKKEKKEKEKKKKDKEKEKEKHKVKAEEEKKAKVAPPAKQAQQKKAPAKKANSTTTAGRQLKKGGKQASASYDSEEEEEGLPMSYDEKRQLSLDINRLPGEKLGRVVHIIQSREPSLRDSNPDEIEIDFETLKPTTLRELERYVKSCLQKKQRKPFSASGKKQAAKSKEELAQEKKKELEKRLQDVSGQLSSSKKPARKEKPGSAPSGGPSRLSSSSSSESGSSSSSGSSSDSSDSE

With `Cc1ncsc1-c1ccc(CNC(=O)[C@@H]2C[C@@H](O)CN2C(=O)[C@@H](NC(=O)COCC(C)(COCCOCCOCCNc2cc3c(cc2F)C(=O)N(C2CCC(=O)NC2=O)C3=O)COCCOCCOC(=O)C[C@@H]2N=C(c3ccc(Cl)cc3)c3c(sc(C)c3C)-n3c(C)nnc32)C(C)(C)C)cc1` (mixture of isomers) [AB3065 (28), (14S)-8-((2-(2-(2-((2-(2,6-dioxopiperidin-3-yl)-6-fluoro-1,3-dioxoisoindolin-5-yl)amino)ethoxy)ethoxy)ethoxy)methyl)-14-((2S,4R)-4-hydroxy-2-((4-(4-methylthiazol-5-yl)benzyl)carbamoyl)pyrrolidine-1-carbonyl)-8,15,15-trimethyl-12-oxo-3,6,10-trioxa-13-azahexadecyl 2-((S)-4-(4-chlorophenyl)-2,3,9-trimethyl-6H-thieno[3,2-f][1,2,4]triazolo[4,3-a][1,4]diazepin-6-yl)acetate], the EC50 was 214 nM in the series with RKO WT cells (setting [1]), 110 nM with K562 cells, 39.4 nM in the series with KBM7 cells and 2.9 nM at BRD4 (setting [4]). Besides, the DC50 at BRD3 (setting [2]) turned out to be 1.2 nM. The “λmax BRD3 (degradation rate)” value on BRD3 (setting [3]) was 2.14 h⁻¹. Further, the “λmax BRD4 (degradation rate)” value on BRD4 was found to be 1.51 h⁻¹.

As for `Cc1ncsc1-c1ccc([C@H](C)NC(=O)[C@@H]2C[C@@H](O)CN2C(=O)[C@@H](NC(=O)COCC(C)(COCCOCCOCCNc2cccc3c2C(=O)N(C2CCC(=O)NC2=O)C3=O)COCCOCCOCCOC(=O)C[C@@H]2N=C(c3ccc(Cl)cc3)c3c(sc(C)c3C)-n3c(C)nnc32)C(C)(C)C)cc1` (mixture of isomers) [AB3066 (24), (17S)-11-((2-(2-(2-((2-(2,6-dioxopiperidin-3-yl)-1,3-dioxoisoindolin-4-yl)amino)ethoxy)ethoxy)ethoxy)methyl)-17-((2S,4R)-4-hydroxy-2-(((S)-1-(4-(4-methylthiazol-5-yl)phenyl)ethyl)carbamoyl)pyrrolidine-1-carbonyl)-11,18,18-trimethyl-15-oxo-3,6,9,13-tetraoxa-16-azanonadecyl 2-((S)-4-(4-chlorophenyl)-2,3,9-trimethyl-6H-thieno[3,2-f][1,2,4]triazolo[4,3-a][1,4]diazepin-6-yl)acetate], the EC50 in the series on RKO WT cells (setting [1]) is 151 nM; in the series on K562 cells, 134 nM; in the series with KBM7 cells it was 38 nM; at BRD4 (setting [4]), 3 nM. The “λmax BRD3 (degradation rate)” value at BRD3 (setting [3]) amounted to 2.66 h⁻¹. The “λmax BRD4 (degradation rate)” value on BRD4 was 2.16 h⁻¹.

For `Cc1ncsc1-c1ccc([C@H](C)NC(=O)[C@@H]2C[C@@H](O)CN2C(=O)[C@@H](NC(=O)COCC(C)(COCCOCCOCCNc2cc3c(cc2F)C(=O)N(C2CCC(=O)NC2=O)C3=O)COCCOCCOCCOC(=O)C[C@@H]2N=C(c3ccc(Cl)cc3)c3c(sc(C)c3C)-n3c(C)nnc32)C(C)(C)C)cc1` (mixture of isomers) [AB3067 (27), (17S)-11-((2-(2-(2-((2-(2,6-dioxopiperidin-3-yl)-6-fluoro-1,3-dioxoisoindolin-5-yl)amino)ethoxy)ethoxy)ethoxy)methyl)-17-((2S,4R)-4-hydroxy-2-(((S)-1-(4-(4-methylthiazol-5-yl)phenyl)ethyl)carbamoyl)pyrrolidine-1-carbonyl)-11,18,18-trimethyl-15-oxo-3,6,9,13-tetraoxa-16-azanonadecyl 2-((S)-4-(4-chlorophenyl)-2,3,9-trimethyl-6H-thieno[3,2-f][1,2,4]triazolo[4,3-a][1,4]diazepin-6-yl)acetate], the EC50 amounted to 111 nM in the series on RKO WT cells (72 h, 316 pM to 10 μM, 3 days, n = 3 (Figures 5 and 8C, Table S5), read-out: EC50 RKO WT); 73 nM with RKO WT cells (72 h, 500 pM to 10 μM, 3 days (Figure 10, Table S6), read-out: EC50 RKO WT); 49 nM with RKO WT cells (RKO WT, 316 pM to 10 μM, n = 6, combination: dBET6 and MZ1 each from 5 μM (Table S7), read-out: EC50 RKO); 97.5 nM in the series on RKO WT cells (setting [1]); 62.1 nM in the series on K562 cells; 6.9 nM with KBM7 cells. The EC50 is 0.6 nM and 0.64 nM at BRD4 (setting [4]); 38 nM at BRD4 (HiBiT-BRD4 HEK293 CRBN KO cells, 5 pM to 3 μM (Figure 9), read-out: Dmax 50 (HiBiT-BRD4: CRBN KO)); 23 nM on BRD4 (HiBiT-BRD4 HEK293 VHL KO cells, 5 pM to 3 μM (Figure 9), read-out: Dmax 50 (HiBiT-BRD4: VHL KO)). In addition, the “cytotoxicity compared with 1:1 mixture of dBET6 and MZ1 (in words)” value in the series on RKO WT cells (human, 3 days) was “more cytoxic than the 1:1 mixture of dBET6 and MZ1”. The DC50 was less than 0.43 nM on BRD3 (setting [2]) and 0.085 nM on BRD3 (setting [3]). Also, the “λmax BRD3 (degradation rate)” value at BRD3 (setting [3]) is 3.31 h⁻¹. Moreover, at BRD4 (CRBN KO vs parental), the “fold less Dmax 50 for BRD4 degradation in CRBN KO than in parent HiBiT-BRD4 cells” value was 60 fold. Also, the “λmax (HiBiT-BRD4: CRBN KO)” value at BRD4 (HiBiT-BRD4 HEK293 CRBN KO cells (Figure 9)) came out at 1.0 h⁻¹. Moreover, the “λmax (HiBiT-BRD4: VHL KO)” value at BRD4 (HiBiT-BRD4 HEK293 VHL KO cells (Figure 9)) stood at 1.2 h⁻¹. Further, the “λmax (HiBiT-BRD4: Parental)” value at BRD4 (HiBiT-BRD4 HEK293 parental cells (Figure 9)) came out at 2.3 h⁻¹. For the same compound, the “λmax BRD4 (degradation rate)” value at BRD4 was 2.68 h⁻¹. For the same compound, the “fold less Dmax 50 for BRD4 degradation in VHL KO than in parent HiBiT-BRD4 cells” value on BRD4 (VHL KO vs parental) turned out to be 40 fold.

Turning to `Cc1ncsc1-c1ccc(CNC(=O)[C@@H]2C[C@@H](O)CN2C(=O)[C@@H](NC(=O)COCC(C)(COCCOCCNc2cc3c(cc2F)C(=O)N(C2CCC(=O)NC2=O)C3=O)COCCOCCOC(=O)C[C@@H]2N=C(c3ccc(Cl)cc3)c3c(sc(C)c3C)-n3c(C)nnc32)C(C)(C)C)cc1` (mixture of isomers) [AB3125 (30), (14S)-8-((2-(2-((2-(2,6-dioxopiperidin-3-yl)-6-fluoro-1,3-dioxoisoindolin-5-yl)amino)ethoxy)ethoxy)methyl)-14-((2S,4R)-4-hydroxy-2-((4-(4-methylthiazol-5-yl)benzyl)carbamoyl)pyrrolidine-1-carbonyl)-8,15,15-trimethyl-12-oxo-3,6,10-trioxa-13-azahexadecyl 2-((S)-4-(4-chlorophenyl)-2,3,9-trimethyl-6H-thieno[3,2-f][1,2,4]triazolo[4,3-a][1,4]diazepin-6-yl)acetate], the EC50 in the series with RKO WT cells (setting [1]) amounted to 369 nM; in the series on K562 cells it was 242 nM; in the series with KBM7 cells, 34.1 nM; at BRD4 (setting [4]) it was 8.2 nM. Further, on BRD3 (setting [2]), the DC50 turned out to be 3 nM. The “λmax BRD3 (degradation rate)” value at BRD3 (setting [3]) was 2.60 h⁻¹ and 2.6 h⁻¹. In addition, the “fold increase in degradation of BRD4 (Dmax 50) vs matched pair” value at BRD4 (23 vs 1, 26 vs 23, 30 vs 2, HiBiT-BRD4 HEK293 cells) stood at 6.7 fold. Moreover, the “λmax BRD4 (degradation rate)” value at BRD4 was 1.76 h⁻¹.

`Cc1ncsc1-c1ccc(CNC(=O)[C@@H]2C[C@@H](O)CN2C(=O)[C@@H](NC(=O)COCC(C)(COCCOCCNc2cc3c(cc2F)C(=O)N(C2CCC(=O)NC2=O)C3=O)COCCOCCOCCOC(=O)C[C@@H]2N=C(c3ccc(Cl)cc3)c3c(sc(C)c3C)-n3c(C)nnc32)C(C)(C)C)cc1` (mixture of isomers) [AB3126 (29), (17S)-11-((2-(2-((2-(2,6-dioxopiperidin-3-yl)-6-fluoro-1,3-dioxoisoindolin-5-yl)amino)ethoxy)ethoxy)methyl)-17-((2S,4R)-4-hydroxy-2-((4-(4-methylthiazol-5-yl)benzyl)carbamoyl)pyrrolidine-1-carbonyl)-11,18,18-trimethyl-15-oxo-3,6,9,13-tetraoxa-16-azanonadecyl 2-((S)-4-(4-chlorophenyl)-2,3,9-trimethyl-6H-thieno[3,2-f][1,2,4]triazolo[4,3-a][1,4]diazepin-6-yl)acetate]: the EC50 in the series with RKO WT cells (setting [1]) was 195 nM; with K562 cells it was 80.5 nM; with KBM7 cells, 7.3 nM; on BRD4 (setting [4]), 4 nM. In addition, at BRD3 (setting [2]), the DC50 was 1.9 nM. Besides, on BRD3 (setting [3]), the “λmax BRD3 (degradation rate)” value is 2.62 h⁻¹. The “λmax BRD4 (degradation rate)” value on BRD4 came to 1.69 h⁻¹.
